Earlier results on four compounds are cited in patent US20210361700A1 (priority 2020, published 2021).

“Also recorded” adds a separate entry of the source. Read-outs that look alike come from different tables or passages of the source.

The subject of data set [1] is colds or influenza.
In data set [2] the test system is endothelial cells.
Data set [3] has as its system TLR4 and NF-κB protein levels, ROS, acute tissue injury. The settings on record: models of lung injury.
Data set [4] concerns influenza, adenovirus, Ebola, and others. The settings on record: high affinity, nonspecific binding to viral surface proteins.
Data set [5] has as its system pro-inflammatory cytokines, such as TNF-α, IL-6 and IL-8. Particulars: acute viral respiratory infection.
For data set [6], the system named is influenza vaccine. The settings on record: experimental models, including influenza vaccine.
Data set [7] has as its target 3CLpro of SARS-CoV (Severe acute respiratory syndrome coronavirus, UniProt P0C6X7).
Data set [8] has as its system strep pneumonia. Particulars: old mice; by reducing neutrophil migration and inflammatory cytokines.
Data set [9] has as its system acute respiratory infections. Particulars: for colds: secondary analysis, older adults.
For data set [10], the system named is vascular endothelial function. Particulars: meta-analyses of randomized controlled trials.
In data set [11] the test system is influenza.
Data set [12] deals with T cell function. Particulars: for T cell function in older adults: supplementation.
Data set [13] relates to hepatitis B and tetanus vaccines. Particulars: for antibody titer / antibody response to vaccines: in vivo.
The test system of data set [14] is influenza. The settings on record: animal models of influenza.
For data set [15], the target named is 3CLpro of MERS (Middle East respiratory syndrome-related coronavirus, UniProt K9N7C7).
Chain of 3CLpro of MERS (K9N7C7 3248-3553 limits assumed): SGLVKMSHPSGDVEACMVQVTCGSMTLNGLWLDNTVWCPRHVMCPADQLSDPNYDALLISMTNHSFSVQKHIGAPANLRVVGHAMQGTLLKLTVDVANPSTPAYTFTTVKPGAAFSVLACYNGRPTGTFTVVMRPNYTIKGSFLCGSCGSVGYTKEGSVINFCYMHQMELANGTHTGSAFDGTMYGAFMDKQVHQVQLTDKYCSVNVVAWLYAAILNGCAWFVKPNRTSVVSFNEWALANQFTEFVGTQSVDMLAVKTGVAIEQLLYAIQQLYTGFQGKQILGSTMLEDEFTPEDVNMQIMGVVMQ
Data set [16] deals with acute respiratory infections. Particulars: N=40; P=0.004; listed as quercetin.
The subject of data set [17] is SARS-CoV ACE2 receptor. The settings on record: studies with SARS-CoV; listed as quercetin.
Data set [18] deals with rhinovirus. The settings on record: rhinovirus infection in mice (COPD).
The test system of data set [19] is respiratory syndrome virus-1 vaccine. The settings on record: large mammal model.
The subject of data set [20] is 3C-like protease (3CLpro) activity of COVID-19.
For data set [21], the system named is upper respiratory infection.
Data set [22] addresses Plpro protease of SARS-CoV (Severe acute respiratory syndrome coronavirus, UniProt P0C6X7).
Data set [23] has as its target COVID-19 S-protein (Severe acute respiratory syndrome coronavirus 2, UniProt P0DTC2).
Data set [24] relates to acute respiratory infections. The settings on record: for lower respiratory infection: zinc supplementation, older adults.
Data set [25] deals with common cold (often caused by coronaviruses). Particulars: short-term zinc supplementation at onset of symptoms; 17 RCTs pooled; 95% CI 0.81 to 2.50; listed as zinc.
For data set [26], the target named is RNA-dependent RNA polymerase of SARS-CoV (Severe acute respiratory syndrome coronavirus, UniProt P0C6X7).
The test system of data set [27] is inflammation.
The mark [28] stands for this setting: subset of subjects 40+ years (N=325), secondary analysis.

Turning to `O=C(O[C@@H]1Cc2c(O)cc(O)cc2O[C@@H]1c1cc(O)c(O)c(O)c1)c1cc(O)c(O)c(O)c1` [EGCG, epigallocatechin gallate], the “OR, clinically diagnosed influenza infection” value in data set [1] (95% CI=0.07-0.76) is 0.25. In addition, the “HR, days free from influenza infection” value in data set [1] (95% CI=0.09-0.84) is 0.27. In addition, in [1] (in vivo), the “reduced clinically diagnosed influenza infection” value was 75% and the “reduced days free from influenza infection” value is 73%. In [2], the “biomarkers of endothelial dysfunction such as ICAM-1 and VCAM-1” value is given as “lowers”. For the same compound, in data set [2] (endothelial cells), the endothelin-1 production entry is listed as “reduces” and the “nitric oxide (NO) release” value is “induces”. In [2] (through effects on the Nrf2/HO-1 pathway), the “excessive endothelial oxidative stress” value was “reduces”. For the same compound, in data set [3], the “TLR4 and NF-κB protein levels, ROS, acute tissue injury” value was “Suppresses inflammatory”. For the same compound, the “infectivity of a wide range of viruses” value in [4] is on record as “Inhibits infectivity of a wide”. Moreover, the pro-inflammatory cytokines result in [5] is on record as “down-regulates; also recorded: Down-regulatcs pro-”. For the same compound, in data set [6], the “immune response to vaccination” value is “potentiated”. Also, the “inhibition of 3CLpro of SARS-CoV” value in data set [7] is “Inhibits the (3CL^pro) activity”.

With Vitamin E, in data set [8], the “survival from strep pneumonia infection” value is “Increases survival from”. Besides, the “risk of total acute respiratory infections” value in data set [9] (nursing home residents) was “reduced the risk”. In data set [9], the colds result is given as “Decreased colds in older adults”. Further, in data set [9] (listed as vitamin E), the colds result is “reduced the risk”. Also, the pneumonia entry in data set [9] (subset of nursing home residents with polymorphism) is on record as “Decreased pneumonia in a subset”. The vascular endothelial function entry in data set [10] was “improve”. Besides, in data set [11] (mouse, in vivo), the “survival in viral pneumonia” value is given as “increases survival” and the “viral load in viral lung infections” value is “Reduces viral load in viral”. Further, the “excessive lung inflammatory responses / inflammatory cytokine production” value in [11] (viral infection, influenza) was “dampens; also recorded: Reduces inflammatory”. The “cell-dividing and IL-producing capacities of naive T cells” value in data set [12] (naive T cells, but not memory T cells) is listed as “increased”. Moreover, the “T cell function in older adults” value in data set [12] was “increases”. In [13], the “in vivo delayed-type hypersensitivity skin response” value was “improves” and the “antibody titer / antibody response to vaccines” value is recorded as “increase; also recorded: improves”.

On to `O=c1c(O)c(-c2ccc(O)c(O)c2)oc2cc(O)cc(O)c12` [Quercetin, quercetin], for which, in data set [14], the “superoxide radical formation, lung pathology, overall risk of infection induced by influenza” value is listed as “Reduces superoxide”; the “viral replication and risk of acute infection” value is “inhibits”. For the same compound, in [15], the “inhibition of 3CLpro of MERS” value is “inhibits”. Besides, the “incidence of acute respiratory infections” value in [16] is listed as “significantly reduced”. For the same compound, the “binding to ACE2 receptor / antagonism of S-protein binding” value in data set [17] was “binds”. In addition, the “cytokine storm / inflammation and lung injury” value in data set [18] was “inhibits cytokine storm and reduces lung injury”. In [2] (in vitro), the “effects in vitro on endothelial cell pathways” value is given as “several beneficial effects”. For the same compound, the “response to respiratory syndrome virus-1 vaccine” value in [19] was “improves”. Besides, the “inhibition of 3CLpro activity of COVID-19” value in data set [20] is “Inhibits the 3C-like protease”. Moreover, in data set [21] (overall, N=1,002), the “effect on rates of upper respiratory infections” value was “no overall significant effect”. Further, in data set [21] (setting [28]), the “reduced duration of upper respiratory infection (total sick days)” value is reported as “(−31%) in a secondary analysis”; the “reduced severity of upper respiratory infection (symptom severity)” value is “severity (−36%) and total sick days”. Besides, the “inhibition of Plpro protease of SARS-CoV” value in data set [22] is recorded as “inhibits”. Moreover, the “inhibition of 3CLpro of SARS-CoV” value in data set [7] was “inhibits”. Besides, the “antagonist of S-protein binding to host ACE2 receptor, computer modeling” value in [23] is recorded as “other compounds as a top”. Also, the “antagonist of S-protein binding to host ACE2 receptor, computer modeling” value in [23] (listed as quercetin) is listed as “top potential antagonist”.

On to zinc, for which, in data set [24] (double-blind, placebo controlled trial), the “acute respiratory infections in the elderly” value is “reduced”. Moreover, the lower respiratory infection entry is “adults and reduces lower” in data set [24]; “reduces” in [24] (listed as zinc). Also, the “T cell function in older adults” value was “Increases T cell function in older” in data set [12] and “increases” in [12] (listed as zinc). Besides, the “reduced days of illness” value in data set [25] is -1.65 days. Besides, the “inhibition of RNA-dependent RNA polymerase” value in data set [26] is “Inhibits the RNA-dependent”. For the same compound, the “antibody titer / antibody response to vaccines” value in data set [13] is listed as “increase; also recorded: restores”. In addition, in data set [27], the inflammation entry is “Reduces inflammation”.
